The structures appear in SMILES notation. Values after ≈ are worked out from the molar mass of the structure shown.

One experiment has as its system L5178Y. Description: Cytotoxicity against […] assessed as inhibition of cell viability at 10 ug/ml. The format is functional. The note with it: Mus musculus.
The test system of a further experiment is NCI-H460. Description: Antiproliferative activity against human NCI-H460 assessed as cell growth inhibition at 100 uM by SRB assay based spectrophotometric analysis. The format is functional. Background: Sulforhodamine B stains cellular protein and so reports cell mass.
The subject of experiment [1] is Trichophyton mentagrophytes. Description: Antifungal activity against Trichophyton mentagrophytes assessed as fungal growth inhibition incubated for 1 hrs by disk diffusion assay. The format is functional. On the technique in general: In agar diffusion tests the substance spreads into inoculated agar from a disc or well.
Another experiment has as its system Aspergillus flavus. In words: Antifungal activity against Aspergillus flavus assessed as fungal growth inhibition incubated for 1 hrs by disk diffusion assay. The format is functional.
Another experiment concerns Pseudomonas aeruginosa. In words: Antibacterial activity against Pseudomonas aeruginosa ATTC-27853 assessed as bacterial growth inhibition incubated for 24 hrs by disk diffusion assay. The format is functional.
In the next experiment the test system is Escherichia coli. Description: Antibacterial activity against Escherichia coli ATTC-25922 assessed as bacterial growth inhibition incubated for 24 hrs by disk diffusion assay. The format is functional.
The next experiment has as its system Klebsiella pneumoniae. Description: Antibacterial activity against Klebsiella pneumoniae assessed as bacterial growth inhibition incubated for 24 hrs by disk diffusion assay. The format is functional.
A further experiment has as its system Staphylococcus aureus. In words: Antibacterial activity against Staphylococcus aureus ATTC-25923 assessed as bacterial growth inhibition incubated for 24 hrs by disk diffusion assay. The format is functional.
The subject of another experiment is Aspergillus fumigatus. Description: Antifungal activity against Aspergillus fumigatus assessed as fungal growth inhibition incubated for 1 hrs by disk diffusion assay. The format is functional.
A further experiment deals with Talaromyces marneffei. In words: Antifungal activity against Penicillium marneffei assessed as fungal growth inhibition incubated for 1 hrs by disk diffusion assay. The format is functional.
The next experiment has as its target DNA topoisomerase 2 (Drosophila melanogaster, UniProt P15348). Description: Inhibition of Drosophila topoisomerase II assessed as relaxation of supercoiled plasmid pBR322 DNA incubated for 30 mins by ethidium bromide staining based agarose gel electrophoresis.
For experiment [2], the target named is T1, DNA gyrase (Escherichia coli, UniProt P0AES4+P0AES6). Description: Inhibition of Escherichia coli DNA gyrase supercoiling activity using pBR322 DNA as substrate incubated for 2 hrs by ethidium bromide/bromophenol blue staining based agarose gel electrophoresis analysis. The format is protein-complex assay.
For experiment [3], the target named is T1, DNA gyrase. In words: Inhibition of Escherichia coli DNA gyrase assessed as inhibition of relaxation of supercoiled plasmid pBR322 DNA incubated for 2 hrs by ethidium bromide/bromophenol blue staining based agarose gel electrophoresis analysis. The format is protein-complex assay.
A further experiment concerns the target Acetylcholinesterase (Homo sapiens, UniProt P22303). In words: Inhibition of AChE in human erythrocytes using acetylthiocholine iodide as substrate at 50 uM incubated for 20 mins by DTNB reagent based Ellman's method. The note with it: Erythrocyte. The format is cell-based. A general note: DTNB colorimetry detects thiols as they appear.
For another experiment, the species on record is Rattus norvegicus. In words: Antiallergic activity in Wistar rat abdominal cavity assessed as inhibition of C48/80-induced histamine release at 0.0005 M incubated for 30 mins by OPT-fluorophore based spectrofluorometric analysis. The format is functional. The note with it: 0.5 h.
For another experiment, the system named is Mus musculus. Description: Analgesic activity in po dosed phenylquinone induced mouse assessed as assessed as reduction in phenylquinone induced writhing. The format is functional.
For the next experiment, the system named is HL-60. Description: Cytotoxicity against human HL-60 cells. The format is functional, cell-based.
Experiment [4] deals with Glutamate NMDA receptor (Rattus norvegicus) (UniProt P35439+Q00959+Q00960+Q00961+Q62645+Q8VHN2+Q9R1M7). Description: Displacement of 3H-(+)-MK 801 from NMDA receptor in rat brain incubated for 80 mins by liquid scintillation counting method. The format is tissue-based. The note with it: filed as antagonist.
Experiment [5] is described as follows: Antioxidant activity assessed as hydroxy radical scavenging activity by HPLC analysis. The format is functional.
Experiment [6] is described as follows: Antioxidant activity assessed as DPPH radical scavenging activity by HPLC analysis. The format is functional.
Experiment [7] in a line: Antioxidant activity assessed as Ferric ion reducing activity by FRAP assay based HPLC analysis. The format is functional.
For experiment [8], the target named is Sigma intracellular receptor 2 (Rattus norvegicus, UniProt Q5U3Y7). In words: Displacement of [3H]DTG from sigma 2 receptor in Sprague-Dawley rat liver membranes measured after 120 mins by liquid scintillation counting method. The format is cell membranes, Membrane.
The target in experiment [9] is Beta-1 adrenergic receptor (Rattus norvegicus) (UniProt P18090). Description: Antagonist activity against beta1 adrenoceptor in Sprague-Dawley rat incubated for 5 mins. The note with it: filed as antagonist.
Experiment [10] deals with 5-hydroxytryptamine receptor 1B (Homo sapiens, UniProt P28222). Description: Displacement of [3H]serotonin from recombinant human 5-HT1B receptor expressed in HEK293 cells incubated for 1 hr by competitive radioligand binding assay based. The format is cell-based.
A further experiment has as its target D(4) dopamine receptor (Homo sapiens, UniProt P21917). In words: Displacement of spiperone from human dopamine D4 receptor expressed in CHO cell membrane incubated for 1 hr by competitive radioligand binding assay based. The format is cell membranes.
The next experiment concerns KB. Description: Antiproliferative activity against human KB cells assessed as cell growth inhibition incubated for 48 hrs by coulter counter method. The format is functional. The note with it: read-out: ID50 (the source's name).
The test system of a further experiment is Lasiodiplodia theobromae. In words: Antifungal activity against Lasiodiplodia theobromae assessed as fungal growth inhibition at 100 ug/ml incubated for 4 days by disk method. The format is functional. The note with it: 96 h, time 4 day.

Sequence of Acetylcholinesterase (P22303 whole entry): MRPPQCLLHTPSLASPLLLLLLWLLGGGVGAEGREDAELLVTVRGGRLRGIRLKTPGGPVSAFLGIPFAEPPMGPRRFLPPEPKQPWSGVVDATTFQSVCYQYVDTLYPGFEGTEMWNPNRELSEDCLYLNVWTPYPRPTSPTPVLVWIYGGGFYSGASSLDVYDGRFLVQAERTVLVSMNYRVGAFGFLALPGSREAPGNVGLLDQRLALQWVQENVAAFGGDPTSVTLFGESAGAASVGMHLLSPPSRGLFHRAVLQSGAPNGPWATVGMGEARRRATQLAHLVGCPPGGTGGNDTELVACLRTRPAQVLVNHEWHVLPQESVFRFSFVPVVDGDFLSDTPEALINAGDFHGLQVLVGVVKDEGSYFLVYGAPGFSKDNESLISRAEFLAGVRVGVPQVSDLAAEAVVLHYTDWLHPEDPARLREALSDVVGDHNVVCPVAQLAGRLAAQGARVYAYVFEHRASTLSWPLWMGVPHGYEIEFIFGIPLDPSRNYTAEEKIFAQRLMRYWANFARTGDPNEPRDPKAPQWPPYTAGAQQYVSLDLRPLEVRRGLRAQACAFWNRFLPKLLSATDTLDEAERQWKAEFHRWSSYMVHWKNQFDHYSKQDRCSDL
Sequence of 5-hydroxytryptamine receptor 1B (P28222 whole entry): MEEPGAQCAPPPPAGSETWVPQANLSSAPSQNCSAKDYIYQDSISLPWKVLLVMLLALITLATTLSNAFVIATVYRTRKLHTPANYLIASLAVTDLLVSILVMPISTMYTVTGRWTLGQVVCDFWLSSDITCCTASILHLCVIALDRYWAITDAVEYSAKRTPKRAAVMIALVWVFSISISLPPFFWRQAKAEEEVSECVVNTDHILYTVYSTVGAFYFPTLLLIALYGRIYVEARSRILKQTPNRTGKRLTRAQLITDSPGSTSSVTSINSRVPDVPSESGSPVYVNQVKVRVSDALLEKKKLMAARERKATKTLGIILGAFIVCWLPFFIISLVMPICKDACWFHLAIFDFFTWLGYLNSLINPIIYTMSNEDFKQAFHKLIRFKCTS
Sequence of DNA topoisomerase 2 (P15348 whole entry): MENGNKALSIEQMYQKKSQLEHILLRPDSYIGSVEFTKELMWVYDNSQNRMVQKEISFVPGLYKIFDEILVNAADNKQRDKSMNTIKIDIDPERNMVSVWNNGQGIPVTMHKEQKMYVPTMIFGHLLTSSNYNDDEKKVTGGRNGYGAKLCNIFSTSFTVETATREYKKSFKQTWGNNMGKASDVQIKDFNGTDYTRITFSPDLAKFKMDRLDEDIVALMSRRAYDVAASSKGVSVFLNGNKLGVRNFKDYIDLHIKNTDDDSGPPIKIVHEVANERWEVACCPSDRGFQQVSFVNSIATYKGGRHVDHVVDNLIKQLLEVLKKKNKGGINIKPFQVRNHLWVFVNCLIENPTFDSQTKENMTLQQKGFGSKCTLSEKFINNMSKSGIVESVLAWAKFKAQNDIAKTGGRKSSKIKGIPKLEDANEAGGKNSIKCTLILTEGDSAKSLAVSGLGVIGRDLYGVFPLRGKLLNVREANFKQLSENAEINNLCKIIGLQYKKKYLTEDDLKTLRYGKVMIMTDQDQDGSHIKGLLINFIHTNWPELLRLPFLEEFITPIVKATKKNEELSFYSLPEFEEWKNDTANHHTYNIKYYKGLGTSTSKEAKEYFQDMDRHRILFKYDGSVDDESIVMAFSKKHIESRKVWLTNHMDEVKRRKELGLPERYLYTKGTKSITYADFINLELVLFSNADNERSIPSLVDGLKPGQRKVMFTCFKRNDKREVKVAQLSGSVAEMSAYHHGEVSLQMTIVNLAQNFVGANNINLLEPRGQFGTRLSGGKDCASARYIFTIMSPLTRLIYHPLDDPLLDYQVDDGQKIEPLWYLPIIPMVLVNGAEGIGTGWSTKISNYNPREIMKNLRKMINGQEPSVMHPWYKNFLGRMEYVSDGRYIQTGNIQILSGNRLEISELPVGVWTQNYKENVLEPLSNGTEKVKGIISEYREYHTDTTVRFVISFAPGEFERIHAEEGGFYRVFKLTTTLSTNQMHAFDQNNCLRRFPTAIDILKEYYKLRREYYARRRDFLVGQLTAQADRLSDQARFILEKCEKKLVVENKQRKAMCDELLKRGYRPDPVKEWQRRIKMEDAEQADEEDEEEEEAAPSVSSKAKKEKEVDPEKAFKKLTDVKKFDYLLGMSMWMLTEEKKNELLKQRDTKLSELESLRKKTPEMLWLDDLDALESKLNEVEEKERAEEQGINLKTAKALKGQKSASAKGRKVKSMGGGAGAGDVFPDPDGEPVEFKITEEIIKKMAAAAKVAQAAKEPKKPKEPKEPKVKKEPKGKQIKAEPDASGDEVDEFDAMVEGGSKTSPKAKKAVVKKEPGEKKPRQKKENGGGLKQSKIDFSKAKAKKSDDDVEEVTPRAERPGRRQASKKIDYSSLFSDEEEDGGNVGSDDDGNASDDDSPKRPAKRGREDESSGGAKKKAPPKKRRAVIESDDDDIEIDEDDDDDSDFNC
Sequence of Beta-1 adrenergic receptor (Rattus norvegicus) (P18090 whole entry, looked up): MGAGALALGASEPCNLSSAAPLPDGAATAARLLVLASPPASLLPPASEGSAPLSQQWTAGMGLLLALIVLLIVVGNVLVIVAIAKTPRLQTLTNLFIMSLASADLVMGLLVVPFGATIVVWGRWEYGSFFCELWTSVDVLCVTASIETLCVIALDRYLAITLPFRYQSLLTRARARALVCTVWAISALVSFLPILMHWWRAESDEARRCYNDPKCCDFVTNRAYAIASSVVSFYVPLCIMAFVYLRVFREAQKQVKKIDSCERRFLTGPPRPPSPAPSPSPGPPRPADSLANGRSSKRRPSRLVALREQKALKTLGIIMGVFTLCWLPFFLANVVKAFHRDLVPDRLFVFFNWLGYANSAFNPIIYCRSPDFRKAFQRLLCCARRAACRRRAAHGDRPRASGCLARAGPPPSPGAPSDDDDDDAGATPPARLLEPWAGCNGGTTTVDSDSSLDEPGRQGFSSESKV
Sequence of Sigma intracellular receptor 2 (Q5U3Y7 whole entry): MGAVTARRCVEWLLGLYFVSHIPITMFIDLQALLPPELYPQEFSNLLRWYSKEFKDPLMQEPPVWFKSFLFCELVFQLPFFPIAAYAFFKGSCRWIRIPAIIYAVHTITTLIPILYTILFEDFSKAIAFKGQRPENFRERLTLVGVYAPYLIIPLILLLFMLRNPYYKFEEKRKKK
Sequence of D(4) dopamine receptor (P21917 whole entry): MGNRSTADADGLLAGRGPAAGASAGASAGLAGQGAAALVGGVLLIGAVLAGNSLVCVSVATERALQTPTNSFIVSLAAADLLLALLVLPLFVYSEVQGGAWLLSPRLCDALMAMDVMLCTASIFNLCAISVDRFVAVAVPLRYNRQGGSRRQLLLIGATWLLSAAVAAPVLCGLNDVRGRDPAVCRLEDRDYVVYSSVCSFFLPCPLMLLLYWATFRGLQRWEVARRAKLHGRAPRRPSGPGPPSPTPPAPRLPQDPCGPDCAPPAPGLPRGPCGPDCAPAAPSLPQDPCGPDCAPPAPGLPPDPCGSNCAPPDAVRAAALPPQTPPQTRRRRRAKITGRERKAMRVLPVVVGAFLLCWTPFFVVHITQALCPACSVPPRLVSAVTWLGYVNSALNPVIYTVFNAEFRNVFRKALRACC

With `COc1cc(O)c(C)c2c1[C@H](O)O[C@@H](C)C2`, the inhibition (usually the change of the read-out against control, counted positive when it falls) at 10 µg/mL in the experiment on L5178Y came out at 40.4%.

As for `COC(=O)Cc1cc2c(cc1C(=O)c1ccc(N)cc1)OCO2`, the inhibition at 100 µM with NCI-H460 was 4%.

With `COc1cccc(Nc2nnc(C3(C)OCCc4cc(OC)c(OC)c(OC)c43)s2)c1` (stereo unspecified), the MIC (in experiment [1]; in the experiment on Aspergillus flavus; in the experiment with Pseudomonas aeruginosa; in the experiment on Escherichia coli; in the experiment on Klebsiella pneumoniae; in the experiment with Staphylococcus aureus) was 6.25 µg/mL (≈ 14.1 µM) in each case. The minimal inhibitory concentration (MIC) with Aspergillus fumigatus and in the experiment with Talaromyces marneffei was 6.25 µg/mL (≈ 14.1 µM) in each case.

In the case of `C[C@H]1Cc2cc3c(cc2[C@H](c2ccc(N)cc2)O1)OCO3`, the inhibition at 100 µM in the experiment with NCI-H460 is 67%.

With `COc1cc(O)cc2c1CO[C@@H](C)C2`, the inhibition at 10 µg/mL in the experiment on L5178Y came out at 16.1%.

For the compound `CCCCCCC[C@H]1Cc2cc(O)c(C(=O)O)c(O)c2[C@@H](O)O1`, the IC50 at DNA topoisomerase 2 was 3.08 µM; against DNA gyrase [2], 18.5 µM; at DNA gyrase [3] it was 27.7 µM.

With `CC1=Cc2c(C=O)c(O)c(C)c(O)c2CO1`, at Acetylcholinesterase, the inhibition was -2%.

In the case of `O=C1OCC2(CCN(Cc3ccccc3)CC2)c2ccccc21`, the inhibition in vivo – broadly, the percentage by which the read-out fell short of the control – at 500 µM in the experiment filed under Rattus norvegicus was determined as 31%. Also, in the experiment on Mus musculus, the ED50 (in general, the midpoint of the dose-response relation) stood at 100 mg/kg.

On to `Cc1c(O)cc(O)c2c1[C@H](C)[C@@H](C)O[C@@H]2c1ccc(O)cc1`, for which the IC50 in the experiment on HL-60 is 22.7 µg/mL (≈ 75.6 µM).

Consider `COc1cc2c(cc1OC)C1CNCC(C2)O1` (stereo unspecified), for which the Activity in [4] stood at 93%.

For `Oc1ccc2c(c1)OCC21Cc2cc(O)c(O)cc2C(O)O1` (stereo unspecified), the IC50 in experiment [5] came out at 33.3 µM; in experiment [6], 33.3 µM; in experiment [7] it was 78.2 µM.

For `CC12Cc3cc4c(cc3C(c3ccc(N)cc3)(OCO1)O2)OCO4` (stereo unspecified), the inhibition at 100 µM in the experiment with NCI-H460 came out at 86%.

On to `O=C1OCC2(CCN(CCc3ccccc3)CC2)c2ccccc21`, for which the inhibition in vivo at 500 µM in the experiment listed under Rattus norvegicus was 94%. The ED50 with Mus musculus came out at 60 mg/kg.

Take `c1ccc(CCN2CCC3(CC2)COCc2ccccc23)cc1`: the inhibition in vivo at 500 µM in the experiment filed under Rattus norvegicus amounted to 96%. Moreover, in the experiment with Mus musculus, the median effective dose (ED50) came out at 54 mg/kg.

Turning to `COC1(C)Cc2c(C=O)c(O)c(Cc3c(O)c(C=O)c4c(c3O)COC(C)=C4)c(O)c2CO1` (stereo unspecified), the inhibition against Acetylcholinesterase amounted to 55%.

With `N#CC1Cc2ccccc2C2(CCN(Cc3ccccc3)CC2)O1` (stereo unspecified), in experiment [8], the Ki (as a rule, a measure of affinity in units of concentration, obtained from inhibition or displacement) was determined as 1.59 µM.

In the case of `CCCNCC(O)CC/N=C1\COCc2c1ccc(OC)c2OC` (stereo unspecified), the inhibition in experiment [9] came to 62.9%.

With `CNC(=O)c1ccc2c(c1)CCO[C@H]2CCN1CCN(c2ccc(OC)cc2)CC1`, the results for the inhibition constant (Ki) (in experiment [10]; on D(4) dopamine receptor) were 5.78 µM and 3.7 µM, respectively.

Regarding `Clc1ccc2oc(SCC3OCCc4ccccc43)nc2c1` (stereo unspecified), in the experiment with KB, the IC50 came out at 6.1 µg/mL (≈ 18.4 µM).

Regarding `COC1(C)Cc2c(C=O)c(O)c(C)c(O)c2CO1` (stereo unspecified), the inhibition against Acetylcholinesterase was -1%.

Regarding `CCOC1OC(C)Cc2c(C)c(O)cc(OC)c21` (stereo unspecified), the inhibition at 100 µg/mL with Lasiodiplodia theobromae turned out to be 74%.

Values taken from ChEMBL document CHEMBL5113374, “Research progress in biological activities of isochroman derivatives” (Eur J Med Chem, 2021).
